How the values were obtained:
[1] = molecular target: Carbonic anhydrase 5A, mitochondrial (Homo sapiens, UniProt P35218); assay: Inhibition of human carbonic anhydrase-5A preincubated for 15 mins by stopped-flow CO2 hydration assay
[2] = molecular target: Carbonic anhydrase 9 (Homo sapiens, UniProt Q16790); assay: Inhibition of human carbonic anhydrase-9 preincubated for 15 mins by stopped-flow CO2 hydration assay

Chain of Carbonic anhydrase 5A, mitochondrial (P35218 whole entry): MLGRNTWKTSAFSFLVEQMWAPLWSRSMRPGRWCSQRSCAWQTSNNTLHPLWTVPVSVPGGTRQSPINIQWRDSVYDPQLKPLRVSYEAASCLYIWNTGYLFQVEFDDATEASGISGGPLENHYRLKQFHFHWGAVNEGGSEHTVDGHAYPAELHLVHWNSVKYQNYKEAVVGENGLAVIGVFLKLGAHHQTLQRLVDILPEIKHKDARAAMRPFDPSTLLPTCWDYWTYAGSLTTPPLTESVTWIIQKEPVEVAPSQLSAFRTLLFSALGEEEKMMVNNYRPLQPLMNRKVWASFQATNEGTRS

Ki [1] | Ki [2] | SMILES
3340 nM | 41 nM | COc1ccccc1CCNS(N)(=O)=O
> 50000 nM | > 50000 nM | COc1cccc(CCNS(N)(=O)=O)c1OC
3250 nM | 376 nM | COc1ccc(CCNS(N)(=O)=O)cc1
2280 nM | 92 nM | COc1ccc(CCNS(N)(=O)=O)cc1OC
> 50000 nM | 221 nM | COc1cc(CCNS(N)(=O)=O)cc(OC)c1OC

Reference: ChEMBL document CHEMBL2385061, “Synthesis and carbonic anhydrase inhibitory properties of sulfamides structurally related to dopamine” (Bioorg Med Chem, 2013)
